Measured values: the OPERA property sets (Mansouri et al. 2018)

Conditions: not given
In the case of `Brc1c(Br)c(Br)c(-c2c(Br)c(Br)c(Br)c(Br)c2Br)c(Br)c1Br`, the log10 vapour pressure (mmHg) is reported as -9.4, the melting point is reported as 375 °C and the ready biodegradability is reported as “not readily biodegradable”.
For `CC(=O)NS(=O)(=O)c1ccc(NC(=O)c2ccccc2C(=O)O)cc1`, the melting point was 196 °C.
`C#CCC=C` gave a boiling point of 42.5 °C.
In the case of `C/C(=N\O)C(=O)c1ccccc1`, the melting point is reported as 114 °C.
In the case of `O=C(OCC1CCC2OC2C1)C1CCC2OC2C1` (stereo unspecified), the melting point is reported as -37 °C.
`Clc1ccc(Oc2ccccc2Cl)c(Cl)c1` gave a log10 vapour pressure (mmHg) of -3.73.
`Nc1ccc(S(=O)(=O)c2ccc(NCC(=O)O)cc2)cc1` showed a melting point of 194 °C.
Work on `C#C[C@]1(O)CC[C@H]2[C@@H]3CCc4cc(OC)ccc4[C@H]3CC[C@@]21C` yielded a melting point of 150 °C.
Work on `C=CCCCCCCCCCCCCCCCCCCCC` yielded a boiling point of 367 °C and a melting point of 38 °C.
For `CC(C)OC(=O)C(=O)OC(C)C`, the boiling point was 191 °C.
With `ON=Cc1ccncc1` the melting point was 132 °C.
For `O=C(O)CCCC(=O)c1ccccc1`, the melting point was 127 °C.
For `C=C(C)C(=O)Cl`, the boiling point was 96 °C and the melting point was -60 °C.
With `C=CCCCCCCCCCCCCCCCCCC` the boiling point was 341 °C, the log10 vapour pressure (mmHg) was -4.98 and the melting point was 28.5 °C.
For `C=Cc1ccc(CC)cc1`, the boiling point was 192 °C, the log10 vapour pressure (mmHg) was -0.0246 and the melting point was -49.7 °C. For the same compound, the ready biodegradability was “not readily biodegradable”.
In the case of `CCC(C)c1ccc(O)c([N+](=O)[O-])c1` (stereo unspecified), the log10 Henry constant (atm·m³/mol) is reported as -4.02 and the log10 vapour pressure (mmHg) is reported as -2.34.
Compound `COc1cc(O)c(C=O)c(OC)c1` has a melting point of 70 °C.
Work on `CC(O)Cn1cnc2c1c(=O)n(C)c(=O)n2C` (stereo unspecified) yielded a melting point of 136 °C.
In the case of `CCCSCCC`, the boiling point is reported as 143 °C, the log10 Henry constant (atm·m³/mol) is reported as -2.49 and the log10 vapour pressure (mmHg) is reported as 0.81. For the same compound, the melting point was -102 °C.
Compound `N#CCCO` has a boiling point of 221 °C, a log10 vapour pressure (mmHg) of -1.1 and a melting point of -46 °C.
With `N[C@@H](CC(=O)O)C(=O)O` the ready biodegradability was “readily biodegradable”.
Compound `CC(CCO)C(F)(F)F` (stereo unspecified) has a boiling point of 140 °C.
`COc1ccc(C(=O)O)cc1O` gave a melting point of 252 °C.
For `Cc1cccc(CBr)c1`, the boiling point was 212 °C.
`CC[C@H]1CN2CCc3cc(OC)c(OC)cc3[C@@H]2C[C@@H]1C[C@@H]1NCCc2cc(O)c(OC)cc21` gave a melting point of 116 °C.
Work on `CC(C)(CC(=O)O)c1ccccc1` yielded a melting point of 60 °C.
`CC(=O)c1ccc(C(F)(F)F)cc1` showed a melting point of 31 °C.
With `CCCCCCCCCCCCCC[N+](C)(C)Cc1ccccc1` the ready biodegradability was “not readily biodegradable”.
`Cc1c2ccccc2cc2c1ccc1ccccc12` showed a melting point of 141 °C.
`Cc1cccc(C(=O)O)c1S(=O)(=O)NC(=O)Nc1nc(OCC(F)(F)F)nc(N(C)C)n1` gave a melting point of 162 °C.
`C1=Cc2cccc3cccc1c23` gave a boiling point of 280 °C, a log10 Henry constant (atm·m³/mol) of -3.94 and a log10 Koc (L/kg) of 3.75. The log10 biodegradation half-life (days) was 1.58, the log10 vapour pressure (mmHg) was -2.18 and the melting point was 92.5 °C. The ready biodegradability was “readily biodegradable”.
With `CC1=C(CC(=O)O)c2cc(F)ccc2/C1=C\c1ccc(S(C)=O)cc1` (stereo unspecified) the melting point was 183 °C.
With `CCN(CC)C(=O)Nc1ccc(OCC(O)CNC(C)(C)C)c(C(C)=O)c1` (stereo unspecified) the melting point was 111 °C.
With `CSC(=O)c1c(C(F)F)nc(C(F)(F)F)c(C(=O)SC)c1CC(C)C` the melting point was 65 °C.
`Oc1ccc(Oc2ccccc2)cc1` showed a melting point of 84 °C.
Compound `CCC(C)CC(C)(C)C` (stereo unspecified) has a boiling point of 126 °C, a log10 vapour pressure (mmHg) of 1.2 and a melting point of -120 °C.
With `Cc1ccc(CC#N)cc1` the boiling point was 242 °C and the melting point was 18 °C.
Work on `OC(COc1ccccc1)COc1ccccc1` yielded a melting point of 81.5 °C.
For `C#C[C@]1(O)CC[C@H]2[C@@H]3CCC4=CC(=O)CC[C@@H]4[C@H]3CC[C@@]21CC`, the melting point was 223 °C.
For `c1cc2c3c(c1)ccc1ccc4cccc-2c4c13`, the log10 biodegradation half-life (days) was 2.54.
Compound `C=CC(=C)Cl` has a boiling point of 59.4 °C, a log10 vapour pressure (mmHg) of 2.33 and a melting point of -130 °C.
With `CCCCCCCC[Si](Cl)(Cl)Cl` the boiling point was 232 °C.
In the case of `Clc1cc(Cl)c(-c2cc(Cl)c(Cl)cc2Cl)cc1Cl`, the log10 Henry constant (atm·m³/mol) is reported as -4.64, the log10 Koa is reported as 9.73 and the log10 Koc (L/kg) is reported as 5.58. The log10 vapour pressure (mmHg) was -5.46.
For `COc1ccc(CC#N)cc1`, the boiling point was 286 °C.
Compound `CNC(C)C` has a boiling point of 50.4 °C.
For `O=[N+]([O-])c1cc(Cl)c(Cl)c(Cl)c1`, the melting point was 72.5 °C.
With `O=C(O)c1ccccc1I` the melting point was 163 °C and the ready biodegradability was “not readily biodegradable”.
In the case of `O=[N+]([O-])c1cccc2c([N+](=O)[O-])cccc12`, the melting point is reported as 219 °C and the ready biodegradability is reported as “not readily biodegradable”.
`C[N+]1(CCC(C(N)=O)(c2ccccc2)c2ccccc2)CCCCC1.[Br-]` gave a melting point of 178 °C.
For `B1Oc2ccccc2O1`, the melting point was 12 °C.
For `C=C[Si]1(C)O[Si](C)(C=C)O[Si](C)(C=C)O[Si](C)(C=C)O1` (stereo unspecified), the boiling point was 224 °C and the melting point was -43.5 °C.
For `CCCCCCCCCC(=O)OC`, the boiling point was 224 °C, the log10 vapour pressure (mmHg) was -1.43 and the melting point was -18 °C.
In the case of `CCCCN(CCCC)c1ccccc1`, the boiling point is reported as 275 °C and the melting point is reported as -32.2 °C.
For `Nc1ccccc1C(=O)OCC=Cc1ccccc1`, the melting point was 61 °C.
With `CC1C=CCC1` (stereo unspecified) the boiling point was 64.9 °C.
For `O=C(c1ccccc1)C(O)c1ccccc1` (racemic), the boiling point was 344 °C, the log10 vapour pressure (mmHg) was -5.28 and the melting point was 137 °C.
Work on `CC(C)(C)SSC(C)(C)C` yielded a melting point of -5 °C.
Compound `NCC(F)(F)C(F)(F)F` has a boiling point of 49 °C.
Compound `N#CCCC(Br)(C#N)CBr` (stereo unspecified) has a melting point of 52 °C.
In the case of `CC(C)CCCC(C)CCCC(C)CCCCC(C)CCCC(C)CCCC(C)C` (stereo unspecified), the boiling point is reported as 350 °C, the log10 biodegradation half-life (days) is reported as 1.62 and the melting point is reported as -38 °C.
Compound `Cl.c1ccc(CC2=NCCN2)cc1` has a melting point of 175 °C.
In the case of `COc1ccc(C(=O)CC(=O)c2ccc(C(C)(C)C)cc2)cc1`, the melting point is reported as 83.5 °C.
`Clc1ccc(Cl)c(Oc2ccccc2)c1Cl` gave a log10 vapour pressure (mmHg) of -3.55.
`COc1ccc2[nH]cc(CCN)c2c1` gave a melting point of 122 °C.
`COc1ccc2c(c1)C(=O)N(CCc1ccc(S(=O)(=O)NC(=O)NC3CCCCC3)cc1)C(=O)C2(C)C` gave a melting point of 181 °C.
For `Cc1cc(C(=O)C(F)(F)F)ccc1Cl`, the ready biodegradability was “not readily biodegradable”.
Compound `C/C=C\C` has a boiling point of 2.25 °C, a log10 Henry constant (atm·m³/mol) of -0.643 and a melting point of -122 °C.
In the case of `O=C(Nc1cccc2ccccc12)Nc1cccc2ccccc12`, the melting point is reported as 296 °C.
For `CC(C)OC(=O)C(O)(c1ccc(Cl)cc1)c1ccc(Cl)cc1`, the log10 vapour pressure (mmHg) was -6.74 and the melting point was 73 °C.
With `ON=Cc1ccc(F)cc1` the melting point was 83.5 °C.
In the case of `Cc1cc(NS(=O)(=O)c2ccc(N)cc2)nc(C)n1`, the melting point is reported as 243 °C.
`CCCCC(=O)O[C@]1(C(=O)CO)CC[C@H]2[C@@H]3CCC4=CC(=O)C=C[C@]4(C)[C@H]3[C@@H](O)C[C@@]21C` showed a melting point of 212 °C.
With `Cc1ccc(O)c(O)c1` the boiling point was 251 °C, the melting point was 65 °C and the ready biodegradability was “not readily biodegradable”.
With `CC1=CCC2CC1C2(C)C` (stereo unspecified) the log10 Henry constant (atm·m³/mol) was -0.873, the log10 vapour pressure (mmHg) was 0.677 and the ready biodegradability was “readily biodegradable”.
For `CCCCOCCOC(C)=O`, the boiling point was 192 °C, the log10 Henry constant (atm·m³/mol) was -5.26 and the log10 vapour pressure (mmHg) was -0.426. The melting point was -63 °C.
`COc1cc(O)ccc1O` showed a melting point of 90 °C.
`CC(Cl)(Cl)C(=O)Cl` showed a boiling point of 118 °C.
In the case of `Nc1c(Cl)cc([N+](=O)[O-])cc1[N+](=O)[O-]`, the ready biodegradability is reported as “not readily biodegradable”.
Compound `CN(C)[C@@H]1C(O)=C(C(N)=O)C(=O)[C@@]2(O)C(O)=C3C(=O)c4c(O)ccc(Cl)c4[C@@](C)(O)[C@H]3C[C@@H]12` has a melting point of 168 °C.
With `CC(C)CCNCCC(C)C` the boiling point was 188 °C and the melting point was -44 °C.
Compound `ClCCOCCCl` has a boiling point of 178 °C, a log10 Koc (L/kg) of 1.88 and a log10 vapour pressure (mmHg) of 0.19. For the same compound, the melting point was -51.9 °C and the ready biodegradability was “not readily biodegradable”.
For `NS(=O)(=O)c1ccc(SCCCO)c(Cl)c1`, the melting point was 127 °C.
For `CCCCCCCCCCCCCCCCCCN(C)C`, the melting point was 22.9 °C.

Same assay, conditions: fish
For `Brc1c(Br)c(Br)c(-c2c(Br)c(Br)c(Br)c(Br)c2Br)c(Br)c1Br`, the log10 BCF was 5.19.
Compound `C=Cc1ccc(CC)cc1` has a log10 BCF of 2.69.
With `Cc1c2ccccc2cc2c1ccc1ccccc12` the log10 biotransformation half-life (days) was -0.05.
Work on `C1=Cc2cccc3cccc1c23` yielded a log10 BCF of 2.43 and a log10 biotransformation half-life (days) of 0.52.
Compound `Clc1cc(Cl)c(-c2cc(Cl)c(Cl)cc2Cl)cc1Cl` has a log10 BCF of 5.43 and a log10 biotransformation half-life (days) of 2.55.
`ClCCOCCCl` gave a log10 BCF of 1 and a log10 biotransformation half-life (days) of -0.81.
